Data set [1] addresses T1, hB1 receptor (Homo sapiens, UniProt P46663).
T1 construct: expressed in transfected cells; host or cells: CHO D- cells stably expressing hB1 and aequorin
T1 sequence (P46663 1-353): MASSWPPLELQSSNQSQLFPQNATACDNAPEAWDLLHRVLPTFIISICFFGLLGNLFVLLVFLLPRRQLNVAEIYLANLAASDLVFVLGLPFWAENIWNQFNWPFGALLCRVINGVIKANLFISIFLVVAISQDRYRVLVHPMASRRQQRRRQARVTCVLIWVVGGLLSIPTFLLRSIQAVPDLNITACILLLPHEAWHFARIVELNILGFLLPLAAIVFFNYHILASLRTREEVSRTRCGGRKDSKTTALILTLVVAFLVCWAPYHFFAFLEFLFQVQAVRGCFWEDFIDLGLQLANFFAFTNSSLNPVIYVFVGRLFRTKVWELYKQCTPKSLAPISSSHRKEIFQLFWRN
Briefly: In vitro assay of human B1 receptor function using calcium flux (aequorin). It is filed as cell-based. The note with it: CHO D-/hB1/Aequorin cells, agonist 20 nM des-Arg10-Kallidin (EC80); read-out: binding IC50's to hB1 receptor function. The text has this: Activation of the Gq linked B1 receptor results in an increase in intracellular calcium. The calcium sensitive photoprotein aequorin can, therefore, be used as an indicator of B1 receptor activation. Aequorin is a 21-kDa photoprotein that forms a bioluminescent complex when linked to the chromophore cofactor coelenterazine. Following the binding of calcium to this complex, an oxidation reaction of coelenterazine results in the production of apoaequorin, coelenteramide, CO2, and light that can be detected by conventional luminometry.
A stable CHO D-/hB1/Aequorin cell line was established and the cells were maintained in suspension in spinner bottles containing a 1:1 ratio of DMEM and HAM F12 (Gibco 11765-047), high glucose (Gibco 11965-084), 10% Heat Inactivated Dialyzed serum (Gibco 26300-061), 1× Non-Essential Amino Acids (Gibco 11140-050), 1× Glutamine-Pen-Strep (Gibco 10378-016), and Hygromycin, 300 μg/mL (Roche 843555). […]
Media was removed from the wells and replaced with 60 μL of serum free HAM's F12 with 30 mM HEPES (pH 7.5) and 15 μM coelenterazine (Coelenterazine h Luciferin #90608 from Assay Designs). […] The hB1 agonist, des-Arg10-Kallidin, was added to the cell plate and another 12 images were recorded to determine the IC50 of the antagonist(s).
On the technique in general: Calcium flux is commonly read through the fluorescence of an indicator in the cells.

For data set [2] the following is noted: cited from earlier work.

Ends that are not written are not given here. A value given as a limit tells only on which side of the number the result lay.

For the molecule `Cc1ccc(S(=O)(=O)N[C@H](Cc2cn([C@@H]3CCOc4cc(CN5CCC(F)CC5)ccc43)nn2)C(N)=O)cc1` [Example 7, (R)-3-(1-((R)-7-((4-fluoropiperidin-1-yl)methyl)-3,4-dihydro-2H-chromen-4-yl)-1H-1,2,3-triazol-4-yl)-2-(4-methylphenylsulfonamido)propanamide], the IC50 (as a rule, the concentration at which inhibition is half-maximal) in data set [1] is less than 1 µM.
As for RPPGFSPFR [BK, Bradykinin], the “half-life of BK in plasma” value in data set [2] is “approximately 17 seconds”.

Source of the values: patent publication US7414134B2, “B1 bradykinin receptor antagonists” (Amgen Inc., priority 2004, dated 2008).
